The numbers were not newly measured in patent US20040039052A1, “Urinary incontinence therapy” (priority 1997, published 2004), which cites them from elsewhere.

The subject of series [1] is vanilloid receptor-mediated release of tachykinins in the rat urinary bladder. Particulars: rats with experimentally induced hypertrophy; cited from earlier work.
The test system of series [2] is patients with detrusor hyperreflexia (DH). The conditions noted are these: intravesical instillation; cited from earlier work.
A further series relates to bladder afferents. The conditions noted are these: rats; intravesicular 10-100 μmol; cited from earlier work.

As for `COc1cc(CNC(=O)CCCC/C=C/C(C)C)ccc1O` [CAP, capsaicin, reference compound], the “reducing symptoms in rats having an experimentally induced hypertrophy” value in series [1] is “effective in reducing symptoms”. In series [2], the “period after treatment when symptoms deteriorate” value is 2 to 4 days; the tolerability upon instillation entry was “intense burning and pain in the lower abdomen upon instillation”. The “desensitization of bladder afferents” value in the series with bladder afferents is listed as “long-lasting desensitization of bladder afferents”.
